Assays:
Leishmania amazonensis [1] = test: Antileishmanial activity against Leishmania […] MHOM/IN/80/DD8 promastigotes assessed as reduction in parasites for 48 hrs by resazurin dye based assay; format: functional, organism-based; settings: MHOM/IN/80/DD8, 48 h
[2] = Selectivity index, ratio of CC50 for mouse J774 cells to IC50 for antileishmanial activity against Leishmania […] MHOM/IN/80/DD8 promastigotes by resazurin dye based assay; format: toxicity; settings: read-out: Selectivity Index
J774 = test: Cytotoxicity against mouse J774 cells assessed as reduction in cell viability after 24 hrs by resazurin dye based assay; format: functional
[3] = Selectivity index, ratio of CC50 for mouse J774 cells to IC50 for antileishmanial activity against Leishmania donovani MHOM/Br/79/Maria promastigotes by resazurin dye based assay; format: toxicity; settings: read-out: Selectivity Index
Leishmania donovani [4] = test: Antileishmanial activity against Leishmania donovani MHOM/Br/79/Maria promastigotes assessed as reduction in parasites for 48 hrs by resazurin dye based assay; format: functional, organism-based
Leishmania donovani [5] = test: Antileishmanial activity against Leishmania donovani MHOM/Br/79/Maria amastigotes infected in mouse J774 cells assessed as reduction in parasites for 48 hrs by resazurin dye based assay; format: functional, organism-based; settings: J774, 48 h
[6] = Selectivity index, ratio of CC50 for mouse J774 cells to IC50 for antileishmanial activity against Leishmania […] MHOM/IN/80/DD8 amastigotes by resazurin dye based assay; format: toxicity; settings: read-out: Selectivity Index
[7] = Selectivity index, ratio of CC50 for mouse J774 cells to IC50 for antileishmanial activity against Leishmania donovani MHOM/Br/79/Maria amastigotes by resazurin dye based assay; format: toxicity; settings: read-out: Selectivity Index
Leishmania amazonensis [8] = test: Antileishmanial activity against Leishmania […] MHOM/IN/80/DD8 amastigotes infected in mouse J774 cells assessed as reduction in parasites for 48 hrs by resazurin dye based assay; format: functional, organism-based; settings: MHOM/IN/80/DD8, J774, 48 h

SMILES | IC50 (Leishmania amazonensis [1]) | selectivity ratio [2] | CC50 (J774) | selectivity ratio [3] | IC50 (Leishmania donovani [4]) | IC50 (Leishmania donovani [5]) | selectivity ratio [6] | selectivity ratio [7] | IC50 (Leishmania amazonensis [8])
COc1ccc(OC)c2c1Cn1cccc1C2(C)CC#N (stereo not drawn) | 93.9 µM | > 3.77 | ≥ 354 µM | – | – | – | – | – | –
CC1(CC#N)c2cc3c(cc2Cn2cccc21)OCO3 (stereo not drawn) | 77.4 µM | > 4.85 | ≥ 376 µM | > 3.13 | 120 µM | – | – | – | –
CC1(CC#N)c2ccc(F)cc2Cn2cccc21 (stereo not drawn) | 96.5 µM | > 4.31 | ≥ 416 µM | > 2.17 | 192 µM | – | – | – | –
CC1(Cc2ccc([N+](=O)[O-])cc2)c2ccccc2Cn2cccc21 (stereo not drawn) | 157 µM | > 2 | ≥ 314 µM | > 1.97 | 159 µM | – | – | – | –
CCCCCCCCCCCCCCCCOP(=O)([O-])OCC[N+](C)(C)C [MILTEFOSINE] | 30.7 µM | 4.43 | 136 µM | 906 | – | 0.37 µM | 2.85 | 369 | 47.6 µM
COc1cc2c(cc1OC)C(C)(Cc1cc(C(F)(F)F)cc(C(F)(F)F)c1)c1cccn1C2 (stereo not drawn) | 39.6 µM | 1.18 | 46.8 µM | 0.42 | 111 µM | – | – | – | –
COc1cc2c(cc1OC)C(Cc1ccc([N+](=O)[O-])cc1)(C(F)(F)F)c1cccn1C2 (stereo not drawn) | 3.93 µM | > 58.8 | ≥ 231 µM | > 14.1 | 16.4 µM | 22.2 µM | > 4.08 | > 10.4 | 56.7 µM
COc1cc2c(cc1OC)C(C)(Cc1cc3ccc4cccc5ccc(c1)c3c45)c1cccn1C2 (stereo not drawn) | 36.7 µM | > 5.95 | ≥ 219 µM | > 2.54 | 86 µM | – | – | – | –
COc1cc2c(cc1OC)C(C)(CC#N)c1cccn1C2 (stereo not drawn) | 309 µM | > 1.14 | ≥ 354 µM | > 1.57 | 226 µM | – | – | – | –
COc1cc2c(cc1OC)C(C)(Cc1ccccc1)c1cccn1C2 (stereo not drawn) | 17.1 µM | > 17.5 | ≥ 300 µM | > 10.1 | 30.3 µM | 55 µM | > 8.93 | > 5.45 | 33.6 µM
COc1ccc2c(c1)Cn1cccc1C2(C)CC#N (stereo not drawn) | 123 µM | > 3.21 | ≥ 396 µM | > 1.1 | 360 µM | – | – | – | –
CC1(Cc2ccc([N+](=O)[O-])cc2)c2cc3c(cc2Cn2cccc21)OCO3 (stereo not drawn) | 8 µM | > 34.5 | ≥ 276 µM | > 9.09 | 30.4 µM | 68.7 µM | > 3.58 | > 4.02 | 77.1 µM
C=CCC1(C)c2cc(OC)c(OC)cc2Cn2cccc21 (stereo not drawn) | 23.3 µM | > 15.2 | ≥ 353 µM | > 2.84 | 124 µM | 256 µM | > 8.1 | > 1.38 | 43.5 µM
COc1ccc(CC2(C)c3cc(OC)c(OC)cc3Cn3cccc32)cc1OC (stereo not drawn) | 3.3 µM | > 77 | ≥ 254 µM | > 6.63 | 38.3 µM | 46.3 µM | > 4.18 | > 5.49 | 60.8 µM
CC1(CC#N)c2ccc(OCc3ccccc3)cc2Cn2cccc21 (stereo not drawn) | 15.8 µM | 14 | 222 µM | 3.69 | 60.2 µM | 44.8 µM | – | 4.97 | –
COc1cc2c(cc1OC)C(C)(C/C=C/c1ccccc1)c1cccn1C2 (stereo not drawn) | 12.2 µM | > 23 | ≥ 278 µM | > 8.27 | 33.7 µM | 16.7 µM | > 4.02 | > 16.6 | 69.3 µM
COc1cc2c(cc1OC)C(C)(Cc1ccc([N+](=O)[O-])cc1)c1cccn1C2 (stereo not drawn) | 18 µM | > 14.7 | ≥ 264 µM | > 3.31 | 79.9 µM | 29.6 µM | > 4.7 | > 8.92 | 56.1 µM
COc1ccc2c(c1OC)Cn1cccc1C2(C)CC#N (stereo not drawn) | 171 µM | > 2.07 | ≥ 354 µM | – | – | – | – | – | –
COc1cc2c(cc1OCc1ccccc1)Cn1cccc1C2(C)CC#N (stereo not drawn) | 24.8 µM | 7.86 | 195 µM | 5.68 | 34.4 µM | – | – | – | –
COc1ccc(CC2(C)c3cc(OC)c(OC)cc3Cn3cccc32)cc1 (stereo not drawn) | 26.4 µM | > 10.4 | ≥ 275 µM | > 5.8 | 47.4 µM | 45 µM | > 5.34 | > 6.12 | 51.6 µM
